Laboratory results from US20250295686A1, “COMBINATION DECITABINE AND MPS1 INHIBITOR THERAPY TO PRIME CANCER IMMUNOGENICITY” (Dana-Farber Cancer Institute, Inc., priority 2021, published 2025).
pIC50: −log10 of the molar value. “Also recorded” adds a separate entry of the source.

Assays:
[1] = test system: STING pathway; assay: Immunoblot of STING downstream signaling in H1944 cells treated with MPS1 inhibitors; format: cell-based, human; conditions: 100 nM BAY-1217389, 250 nM CC-671, compared with 200 nM CFI-402257
Protocol: It was also shown that MPS1 inhibitor-induced cellular cytotoxicity was dependent upon intact STING and STAT1 (FIG. 3K).
On the other hand, reconstitution of STING in STING^absent KL cells such as A549 and H23 cells also sensitized them to MPS1 inhibition, leading to CXCL10 secretion and STAT1 activation (FIGS. 3J, 4H). It was determined that MPS1 inhibitor-induced cellular cytotoxicity and growth arrest in KL cells required activation of STING signaling following 48-hour pulse treatment, and to a lesser degree during continuous 96 hour SAC inhibition, which is also capable of arresting KP cells (FIGS. 3K, 4I-4K). […] Phosphorylation of TBK1 and IFN-β secretion, which are upstream of IFNAR1, were also attenuated by IFNAR1 depletion (FIGS. 3L, 4M, and 4N).
(§1) Cells were lysed in RIPA buffer containing 1× protease inhibitors (Roche, Cat #11-836-145-001) and phosphatase inhibitors (50 mmol/L NaF and 100 mmol/L Na3VO4). […] Imaging of blots and quantitation of bands was performed using the LICOR Odyssey system, or LAS-3000 (Fujifilm).

[2] = test system: 393P-KL cells; assay: Efficacy studies in 393P-KL syngeneic model (129S2/SvPasCrl mice); format: in vivo, mouse; conditions: after 12 weeks; decitabine day 1-7 and/or BAY-1217389 day 8, 9, 21, 22; durable response = tumor volume less than 250 mm^3 for at least 50 days after treatment
Protocol: To test this, an efficacy study was performed utilizing the same short-term pulse regimen of the sequential therapy with DAC/MPS1i in 393P-KL syngeneic model. […] Additionally, to further assess the role of an intact immune system, immune-deficient NSG mice were used.

[3] = test system: H1944 cells; assay: Cell viability assay to determine an IC50 (CellTiter-Glo); format: cell-based, human
Source text: Due to their particular hypersensitivity, H1944 cells were utilized as a model system in which to conduct an unbiased screen of cytotoxic chemotherapies or targeted DNA-damaging agents for their ability to upregulate endogenous 2′3′-cGAMP production following pulse treatment, including cGAS-deficient H2122 cells as a counter-screen (FIGS. 3A and 3B). […] Additionally, hydroxyurea or nocodazole were included as controls to induce S-phase or M-phase cell cycle arrest. The IC50 was identified for each compound for cell viability in H1944 cells, and this concentration was utilized for the screen (FIG. 4A and Table 1). It was shown that each agent induced cellular cytotoxicity and/or DNA-damage response at this concentration, as measured by the induction of propidium iodide positive cells, cleaved PARP fragments, or histone TH2A.X expression (FIGS. 4B and 4C).
3000 cells were plated onto 96-well plates, and then cultured for 72 hours in the presence of each DNA-damaging agent at the indicated concentration. Values of CellTiter-Glo Luminescent Cell Viability assay (Promega) […] were normalized to vehicle treated cells. Plates were read on a Tecan Infinite M200 Pro plate reader and analysis was performed using Prism7 (GraphPad Software). All conditions were tested in triplicate.

[4] = test system: KL NSCLC cell lines; assay: CXCL10 ELISA after exogenous CDN exposure, KL NSCLC cell lines; format: cell-based, human; conditions: 24 hours
Source text: Treatment with 2′3′-cGAMP or ADU-S100 was utilized to examine the sensitivity of KP or KL NSCLC cell lines to exogenous CDN exposure. […] KL cell response to extracellular CDNs was still modest as compared with endothelial cells (HUVEC) or monocytic THP-1 cells, which also have different membrane permeabilities (FIG. 2C) (Cordova et al., 2021; Luteijn et al., 2019; Ritchie et al., 2019).
(§2) Human IFN-β (Thermo Fisher Scientific, Cat. #414101), human CXCL10 (R&D systems, Cat. #DIP100), mouse CXCL10 (R&D systems, Cat. #DY466), and 2′3′-cGAMP (Cayman Chemical, Cat. #501700) ELISAs were performed according to the manufacturer's instructions. Conditioned media from each cell lines was collected after 24 hour culture. Values represent the average of four replicates from at least two independent experiments (biological replicates).

[5] = test system: STING pathway; assay: Pre-treatment with epigenetic inhibitor followed by pulse MPS1i in STING^Low KL cells (ELISA, immunoblot, immunofluorescence); format: cell-based, human
Source text: However, since KL cells epigenetically silence STING, unleashing STING expression might robustly sensitize them to MPS1 inhibition, including cell lines with baseline STING absence. Pre-treatment with the EZH2 inhibitor GSK126, which is able to de-repress STING in STING^Low KL cells lines, H1944, and H1355 cells, was explored (Kitajima et al., 2019) (FIGS. 8B and 8C).
as §2, §1
After being grown on chamber slides (CellTreat, Cat #229168) and subjected to various treatment conditions, cells were fixed and permeabilized according to standard protocols. […] Slides were imaged with the Nikon Eclipse 80i microscope, and colocalization was determined using CoLoc2 in ImageJ.

[6] = test system: H1944 cells; assay: Cell cycle analysis through propidium iodide staining; format: cell-based, human; conditions: 48 hours, 200 nM CFI-402257, 2.5 μM cisplatin, 5 μM etoposide, 500 nM pemetrexed, 50 μM hydroxyurea
Source text: For cell cycle analysis, cells were stained by BD CycleTEST™ Plus DNA according to the manufacturer's instructions, and then analyzed by FACSCanto 11 (BD Biosciences). For cell viability analysis, cells were stained by propidium iodide (PI) according to the manufacturer's instructions of Annexin V using Alexa Fluor 488 Annexin V dead cell apoptosis kit (Thermo Fisher Scientific, Cat. #V13245) and then analyzed by FACSCanto 11 (BD Biosciences).

[7] = Homo sapiens, NCI-H1944, 72 hours with drug

Compound | pIC50 [3, 7] | other results
COc1ccc(Oc2cc(NCCC(F)(F)F)c3ncc(-c4ccc(C(=O)NC5CC5)c(C)c4)n3n2)c(F)c1F [BAY-1217389] |  | STING downstream signaling, cGAS-dependent (immunoblot) [1]: upregulated to the same extent; also recorded: induced similar cGAS dependent activation of STING signaling; durable, long-term response [2]: 0 mice
CN(Cc1cnc2nc(N)nc(N)c2n1)c1ccc(C(=O)N[C@@H](CCC(=O)O)C(=O)O)cc1 [methotrexate] | 6.79 | 
Nc1nc2c(ncn2[C@@H]2O[C@@H]3COP(=O)(O)O[C@H]4[C@@H](O)[C@H](n5cnc6c(N)ncnc65)O[C@@H]4COP(=O)(O)O[C@@H]2[C@@H]3O)c(=O)[nH]1 [2′3′-cGAMP, 2′3′-cyclic GMP-AMP] |  | CXCL10 secretion, STING^Absent KL cell lines ([4]; A549, H23, A427, up to 100 μM): failed to respond; CXCL10 secretion, STING^Low KL cells ([4]; H1944, H2122, H647, H1355, 3.125-100 μM): dose-dependent manner
CC[C@H](C)n1cc(C)c2c(C(=O)NCc3c(C)cc(C)[nH]c3=O)cc(-c3ccc(N4CCNCC4)nc3)cc21 [GSK126] |  | STING levels ([5]; H1944 cells, 5 μM GSK126 combination with 200 nM CFI-402257): upregulated STING levels; CXCL10 and IFN-β secretion induced by pulse MPS1i treatment after pre-treatment ([5]; H1944 or H1355 cells, 5 μM GSK126 pre-treatment, then 200 nM CFI-402257 or 100 nM BAY-1217389): markedly enhanced
Nc1nc2[nH]cc(CCc3ccc(C(=O)N[C@@H](CCC(=O)O)C(=O)O)cc3)c2c(=O)[nH]1 [pemetrexed] | 6.21 | cell cycle status [6]: induced S-phase arrest
N.N.[Cl][Pt][Cl] [cisplatin] |  | pIC50 ([3]; 72 hours with drug): 5.49; cell cycle status [6]: strongly induced G2/M-arrest
CC[C@@H]1C(=O)N(C)c2cnc(Nc3ccc(C(=O)N[C@H]4CC[C@H](N5CCN(CC6CC6)CC5)CC4)cc3OC)nc2N1C(C)C [volasertib] | 8.07 | 
C=CCn1c(=O)c2cnc(Nc3ccc(N4CCN(C)CC4)cc3)nc2n1-c1cccc(C(C)(C)O)n1 [MK1775] | 7.16 | 
COc1cc([C@@H]2c3cc4c(cc3[C@@H](O[C@@H]3O[C@@H]5CO[C@@H](C)O[C@H]5[C@H](O)[C@H]3O)[C@H]3COC(=O)[C@H]23)OCO4)cc(OC)c1O [etoposide] | 5.33 | 
COC(=O)Nc1nc2ccc(C(=O)c3cccs3)cc2[nH]1 [nocodazole] | 7.22 | 
Nc1ncn([C@H]2C[C@H](O)[C@@H](CO)O2)c(=O)n1 [decitabine] |  | durable, long-term response [2]: 2/8
COc1cccc(OCCCN)c1-c1cc(Nc2cnc(C#N)cn2)n[nH]1 [prexasertib] | 7.95 | 
CCC1=C[C@@H]2CN(C1)Cc1c([nH]c3ccccc13)[C@@](C(=O)OC)(c1cc3c(cc1OC)N(C)[C@H]1[C@@](O)(C(=O)OC)[C@H](OC(C)=O)[C@]4(CC)C=CCN5CC[C@]31[C@@H]54)C2 [vinorelbine] | 7.65 | 
NC(=O)NO [hydroxyurea] | 4.46 | cell cycle status [6]: induced S-phase arrest
C[C@@H]1COCCN1c1cc(C2([S@](C)(=N)=O)CC2)nc(-c2cc[nH]c3nccc2-3)n1 [ceralasertib] | 5.97 | 
CCN(CCCOc1ccc2c(Nc3cc(CC(=O)Nc4cccc(F)c4)n[nH]3)ncnc2c1)CCOP(=O)(O)O [barasertib] | 6.80 | 
CNC(=O)c1ccc(Nc2nc(OC3CCCC3)c3c(-c4ccc5nc(C)oc5c4)c[nH]c3n2)c(OC)c1 [CC-671] |  | STING downstream signaling, cGAS-dependent (immunoblot) [1]: upregulated to the same extent; also recorded: induced similar cGAS dependent activation of STING signaling
Cc1cc(-c2cnn3c(NC[C@H]4C[C@@](C)(O)C4)cc(Oc4cccnc4)nc23)ccc1C(=O)NC1CC1 [CFI-402257] | 6.59 | 
O=C(O)[C@]1(Cc2cccc(Nc3nccs3)n2)CC[C@@H](Oc2cccc(Cl)c2F)CC1 [MK5108] | 5.41 | 
O=C(c1cc(Cc2n[nH]c(=O)c3ccccc23)ccc1F)N1CCN(C(=O)C2CC2)CC1 [olaparib] | 4.56 | 
